Measured values taken from patent US8242280B2, “Fused ring heterocycle kinase modulators” (SGX Pharmaceuticals, Inc., priority 2007, dated 2012).

Assays:
[1] = target: Ba/F3 cells, ABL1 WT (Homo sapiens, UniProt P00519); experiment: 96-well XTT cell survival assay, Ba/F3 ABL1 WT; assay type: cell-based; details: 72 hours, read-out: ABL1 WT XTT [Ba/F3] IC50
Outline: (§1)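 Ba/F3 cells carrying wild-type or T315I ABL1 were seeded at 5000-8000 per well with graded compound concentrations in duplicate and grown 72 hours at 37° C. Survival was read by XTT/PMS reduction after a further 2-6 h, as absorbance at 405 nm with 650 nm background correction.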

[2] = target: Ba/F3 cells, ABL1 T315I (Homo sapiens, UniProt P00519, T315I, cells depend on it); experiment: 96-well XTT cell survival assay, Ba/F3 ABL1 T315I; assay type: cell-based; details: 72 hours, read-out: ABL1 T315I XTT [Ba/F3] IC50
Outline: as §1

[3] = target: T1, unphosphorylated T315I Abl kinase domain (Mus musculus, UniProt P00520, T315I); experiment: c-Abl T315I 0P bioassay (pyruvate kinase/lactate dehydrogenase coupled enzyme assay); assay type: biochemical; details: zero phosphorylation state (0P), 10 μM ATP, read-out: AbI T315I 0P IC50
T1 construct: purified and unphosphorylated T315I Abl kinase domain; made in house; host or cells: E. coli BL21(DE3) (Codon+RIL or pSA0145 strain)
T1 sequence (P00520 242-493 T315I limits assumed): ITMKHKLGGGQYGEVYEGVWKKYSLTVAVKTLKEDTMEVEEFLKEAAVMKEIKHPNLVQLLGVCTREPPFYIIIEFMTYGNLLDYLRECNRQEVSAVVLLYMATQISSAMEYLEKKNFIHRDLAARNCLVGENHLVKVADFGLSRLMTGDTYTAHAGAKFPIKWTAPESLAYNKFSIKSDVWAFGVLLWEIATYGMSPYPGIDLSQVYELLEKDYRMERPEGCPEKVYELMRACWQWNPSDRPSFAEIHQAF

SMILES	IC50 [3]	GI50 [1]	GI50 [2]
COc1ccccc1-c1n[nH]c2ncc(-c3cccc(C(O)C(=O)NCCN(C)C)c3)cc12 (stereo not drawn)	< 0.05 µM	< 1 µM	> 1 µM
COc1ccccc1-c1c[nH]c2ncc(-c3cccc(C(O)C(=O)N4CC(O)C4)c3)cc12 (stereo not drawn)	< 0.05 µM	< 1 µM	> 1 µM
COc1ccccc1-c1n[nH]c2ncc(-c3cccc(C(O)C(N)=O)c3)cc12 (stereo not drawn)	< 0.05 µM	< 1 µM	< 1 µM
COc1ccccc1-c1n[nH]c2ncc(-c3cccc(C(O)C(=O)N(C)C4CCN(C)C4)c3)cc12 (stereo not drawn)	< 0.05 µM	< 1 µM	< 1 µM
COc1ccccc1-c1c[nH]c2ncc(-c3cccc(C(N)C(=O)N(C)C)c3)cc12 (stereo not drawn)	< 0.05 µM	< 1 µM	< 1 µM
CN(C)C(=O)C(O)c1cncc(-c2cnc3[nH]cc(-c4ccnn4C)c3c2)c1 (stereo not drawn) [drawing 464]	0.05 to 0.5 µM	> 1 µM	> 1 µM
CN(C)C(=O)C(O)c1cncc(-c2cnc3[nH]cc(-c4ccnn4C)c3c2)c1 (stereo not drawn) [drawing 465]	< 0.05 µM	> 1 µM	> 1 µM

Continued, in another order:

IC50 [3]	SMILES	GI50 [1]	GI50 [2]
< 0.05 µM	COc1ccccc1-c1c[nH]c2ncc(-c3cccc(C(O)C(=O)N(C)CCN(C)C)c3)cc12 (stereo not drawn)	< 1 µM	< 1 µM
< 0.05 µM	COc1ccccc1-c1n[nH]c2ncc(-c3cccc(C(O)C(=O)N(C)C4CCS(=O)(=O)C4)c3)cc12 (stereo not drawn)	< 1 µM	> 1 µM
< 0.05 µM	COc1ccccc1-c1c[nH]c2ncc(-c3cccc(C(N)C(=O)N(C)CCN(C)C)c3)cc12 (stereo not drawn)	> 1 µM	> 1 µM
< 0.05 µM	CN(C)C(=O)C(O)c1cncc(-c2cnc3[nH]cc(-c4cccc(Cl)c4)c3c2)c1 (stereo not drawn) [drawing 431]	< 1 µM	< 1 µM
